Laboratory results: patent US9724312B2, “Agent for the prevention, improvement or treatment of retinal disease” (ROHTO PHARMACEUTICAL CO., LTD., priority 2012, dated 2017)

How the values were obtained:
ARPE-19 = test: Protective effect for retinal pigment epithelial cells against oxidative stress by hydrogen peroxide; format: cell-based, human; conditions: all-trans form content 280 μM, 14 h, then 750 μM hydrogen peroxide 2 h, FIG. 4, n=3
Excerpt: The involvement of oxidative stress in ophthalmologic diseases has been widely reported. Such involvement has been observed in, in addition to glaucoma and cataract, retinal diseases such as retinal diseases due to diabetes, hypertension, hyperlipemia, etc., age-related macular degeneration, retinopathy of prematurity, retinal vascular occlusion, retinal light damage, etc. (Nippon Ganka Gakkai Zasshi. 112, 22-29 (2008)). In the retina, the retinal pigment epithelium exists in an environment in which reactive oxygen easily generates (Invest Opthalmol V is Sci. 2006 July 47(7): 3164-3177). […]
After 2 hours of incubation, the cell culture supernatant was removed, and 200 μL of PBS was added to each well and promptly removed. Then, 100 μL of an equivalent mixture of a cell viability detection reagent Cell Titer-Glo (Promega) and PBS was added to each well and the luminescence produced by the reaction with ATP in living cells was measured with a luminometer (GloMax; Promega). The cell viability was calculated from the measured luminescence by the following formula and the cytoprotective effect of GGA against oxidative stress by hydrogen peroxide was examined. Cell viability(%)=100×[(luminescence of base- or GGA-treated group)/(luminescence of non-treated group)]

[1] = tested on: IL-8 production by TNF-α in ARPE-19; test: Inhibitory effect on IL-8 production by TNF-α from retinal pigment epithelial cells; format: cell-based, human; conditions: all-trans form content 50 μM, 16 h, then TNF-α 4 h, FIG. 5, n=3
Excerpt: Age-related macular degeneration is known to involve the accumulation of drusen under the retinal pigment epithelium. Drusen attract macrophages and macrophages secrete TNF-α. TNF-α acts on the retinal pigment epithelium and its peripheral tissue, and the cells subsequently produce a variety of cytokines and cause inflammation (Mol Vis. 2008 14: 2292-303). Atypical cytokine that is involved in neutrophil migration and spreads inflammation is interleukin-8 (IL-8). In this experiment, the inhibitory effect of GGA on IL-8 production by TNF-α was examined using a human-derived retinal pigment epithelial cell line, ARPE-19. […]
After 4 hours of incubation, 150 μL of the cell culture supernatant was collected and stored at −80° C. […] Then, 100 μL of an equivalent mixture of a cell viability detection reagent Cell Titer-Glo and PBS was added to each well and the luminescence produced by the reaction with ATP in living cells was measured with a luminometer. From the measured luminescence, the cell viability was calculated by the following formula. Cell viability(%)=100×[(luminescence of GGA-treated group)/(luminescence of base-treated group)]
The stored cell culture supernatant was allowed to warm to room temperature, and the IL-8 concentration was quantified with Human CXCL8/IL-8 Quantikine ELISA Kit (R&D Systems). […]

CC(=O)CC/C=C(\C)CC/C=C(\C)CC/C=C(\C)CCC=C(C)C [all-trans form, (5E,9E,13E)-6,10,14,18-tetramethyl-5,9,13,17-nonadecatetrae n-2-one]
cell viability compared with base-treated group (ARPE-19): significantly higher cell viabilities | inhibitory effect on IL-8 production compared with GGA 6:4 [1]: significant inhibitory effect on IL-8 production
